Literature values, collected in patent US12378302B2, “Fusion molecules and uses thereof” (Foundation Medicine, Inc., priority 2012, dated 2025).
pIC50, pKi: −log10 of the molar value. Like-named read-outs stand apart in the source and are kept apart here. Values belong to the molecule of their own block, whether it stands above or below them.

Tests used:
[1] = target: VEGFR3 (Homo sapiens, UniProt P35916)
[2] = system: Akt1, CDKs, PLK1, EGFR, IGF-1R, c-Met, Flt2 etc.
[3] = system: other protein kinases
[4] = system: CDK1/2/3/4/7/9; conditions: range over the CDKs
[5] = system: Aβ40 production
[6] = target: InsR (Homo sapiens, UniProt P06213)
[7] = system: VEGFR2; conditions: VEGFR2/3 vs FGFR1, PDGFRα/β
[8] = system: HER2, PDGFR, VEGFR-2, Bcr-Abl and c-Kit
[9] = system: FGFR-1, Flt3, c-Met EGFR and IGF-1R
[10] = system: FGFR-1, Flt3, c-Met EGFR and IGF-1R; remark: listed apart in the source
[11] = target: EGFR (Homo sapiens, UniProt P00533); conditions: ErbB family vs other kinases
[12] = target: c-Raf-1 (Y340D and Y341D mutations) (Homo sapiens, UniProt P04049, Y340D/Y341D)
[13] = target: B-Raf^V600E (Homo sapiens, UniProt P15056, V600E); conditions: V600E vs wild-type
Sequence of B-Raf^V600E (P15056 whole entry V600E): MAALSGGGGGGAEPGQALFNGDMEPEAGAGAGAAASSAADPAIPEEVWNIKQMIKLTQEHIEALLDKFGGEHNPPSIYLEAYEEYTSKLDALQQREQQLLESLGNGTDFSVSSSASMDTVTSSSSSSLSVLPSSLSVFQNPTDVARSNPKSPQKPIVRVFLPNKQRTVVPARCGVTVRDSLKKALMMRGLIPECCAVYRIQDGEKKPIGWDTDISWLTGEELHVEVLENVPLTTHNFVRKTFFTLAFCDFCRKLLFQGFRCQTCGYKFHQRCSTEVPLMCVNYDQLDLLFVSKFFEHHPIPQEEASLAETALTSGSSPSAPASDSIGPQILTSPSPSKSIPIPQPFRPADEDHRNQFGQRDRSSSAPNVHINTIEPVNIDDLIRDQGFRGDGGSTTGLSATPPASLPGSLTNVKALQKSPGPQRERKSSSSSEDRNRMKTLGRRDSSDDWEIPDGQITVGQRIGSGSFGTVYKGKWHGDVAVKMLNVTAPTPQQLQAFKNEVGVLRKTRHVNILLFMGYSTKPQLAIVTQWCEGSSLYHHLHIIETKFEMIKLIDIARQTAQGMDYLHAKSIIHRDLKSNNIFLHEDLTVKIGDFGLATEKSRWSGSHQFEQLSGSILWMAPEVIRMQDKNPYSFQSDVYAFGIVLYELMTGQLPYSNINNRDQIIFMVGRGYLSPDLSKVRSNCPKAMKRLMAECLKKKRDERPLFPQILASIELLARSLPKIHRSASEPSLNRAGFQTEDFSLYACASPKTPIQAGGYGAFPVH

[14] = target: T1, PDGFRα (Homo sapiens, UniProt P16234)
T1 sequence (P16234 24-1089, species assumed): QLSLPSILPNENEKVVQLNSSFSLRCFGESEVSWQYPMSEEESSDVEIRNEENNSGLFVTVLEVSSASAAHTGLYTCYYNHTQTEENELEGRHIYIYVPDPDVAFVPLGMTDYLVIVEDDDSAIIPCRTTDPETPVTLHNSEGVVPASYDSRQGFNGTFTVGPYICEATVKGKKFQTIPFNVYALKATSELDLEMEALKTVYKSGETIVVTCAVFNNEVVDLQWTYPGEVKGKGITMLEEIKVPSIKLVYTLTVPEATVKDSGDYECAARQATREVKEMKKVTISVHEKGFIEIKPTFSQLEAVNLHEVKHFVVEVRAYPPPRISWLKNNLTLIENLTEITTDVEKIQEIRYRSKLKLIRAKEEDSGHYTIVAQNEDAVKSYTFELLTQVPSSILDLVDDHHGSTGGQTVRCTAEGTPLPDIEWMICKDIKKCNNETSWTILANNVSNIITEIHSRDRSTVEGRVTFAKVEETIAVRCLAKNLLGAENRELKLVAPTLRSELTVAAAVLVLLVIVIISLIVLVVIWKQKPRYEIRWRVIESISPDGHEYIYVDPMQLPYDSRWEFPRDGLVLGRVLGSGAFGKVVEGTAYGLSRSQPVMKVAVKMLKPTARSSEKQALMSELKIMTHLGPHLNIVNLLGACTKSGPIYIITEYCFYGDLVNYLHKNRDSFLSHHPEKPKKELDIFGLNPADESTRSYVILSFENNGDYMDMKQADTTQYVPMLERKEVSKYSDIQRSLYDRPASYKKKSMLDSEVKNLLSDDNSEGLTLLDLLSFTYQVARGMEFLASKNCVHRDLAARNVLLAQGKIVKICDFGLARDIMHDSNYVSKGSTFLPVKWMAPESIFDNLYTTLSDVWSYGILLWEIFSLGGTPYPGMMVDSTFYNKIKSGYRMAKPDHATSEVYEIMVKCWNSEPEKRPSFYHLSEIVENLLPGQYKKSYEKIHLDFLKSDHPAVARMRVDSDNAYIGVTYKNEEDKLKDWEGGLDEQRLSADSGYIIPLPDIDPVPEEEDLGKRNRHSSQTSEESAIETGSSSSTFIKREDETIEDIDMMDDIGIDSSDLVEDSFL

[15] = target: T1, PDGFRα; conditions: read-out: IC50 against PDGFRα
[16] = system: FGFR1 and EGFR
[17] = system: Abl, Fyn, Kit, Lck, Lyn and Yes
[18] = system: Abl, Fyn, Kit, Lck, Lyn and Yes; remark: listed apart in the source
[19] = system: H460 cells; conditions: read-out: IC50 reduction of colony number and size
[20] = system: CDK1/2/5, EGFR, FGFR, PDGFR, and InsR
[21] = system: phosphorylation of FGFR-1, EGFR or c-Met
[22] = target: PKC
[23] = target: CaMK; conditions: competitively with ATP
[24] = target: PKG
[25] = target: PKA
[26] = system: STAT5 phosphorylation
[27] = system: HEL92.1.7 cells; conditions: read-out: IC50 antiproliferative activity
[28] = system: myeloproliferative disorders
[29] = system: myeloproliferative disorders; remark: listed apart in the source
[30] = system: HEL92.1.7 cells; conditions: read-out: IC50 antiproliferative activity in vitro
[31] = system: STAT5 phosphorylation; conditions: read-out: IC50 for prevention of STAT5 phosphorylation
[32] = target: ALK (Homo sapiens, UniProt Q9UM73); conditions: read-out: IC50 ALK
Sequence of ALK (Q9UM73 19-1620): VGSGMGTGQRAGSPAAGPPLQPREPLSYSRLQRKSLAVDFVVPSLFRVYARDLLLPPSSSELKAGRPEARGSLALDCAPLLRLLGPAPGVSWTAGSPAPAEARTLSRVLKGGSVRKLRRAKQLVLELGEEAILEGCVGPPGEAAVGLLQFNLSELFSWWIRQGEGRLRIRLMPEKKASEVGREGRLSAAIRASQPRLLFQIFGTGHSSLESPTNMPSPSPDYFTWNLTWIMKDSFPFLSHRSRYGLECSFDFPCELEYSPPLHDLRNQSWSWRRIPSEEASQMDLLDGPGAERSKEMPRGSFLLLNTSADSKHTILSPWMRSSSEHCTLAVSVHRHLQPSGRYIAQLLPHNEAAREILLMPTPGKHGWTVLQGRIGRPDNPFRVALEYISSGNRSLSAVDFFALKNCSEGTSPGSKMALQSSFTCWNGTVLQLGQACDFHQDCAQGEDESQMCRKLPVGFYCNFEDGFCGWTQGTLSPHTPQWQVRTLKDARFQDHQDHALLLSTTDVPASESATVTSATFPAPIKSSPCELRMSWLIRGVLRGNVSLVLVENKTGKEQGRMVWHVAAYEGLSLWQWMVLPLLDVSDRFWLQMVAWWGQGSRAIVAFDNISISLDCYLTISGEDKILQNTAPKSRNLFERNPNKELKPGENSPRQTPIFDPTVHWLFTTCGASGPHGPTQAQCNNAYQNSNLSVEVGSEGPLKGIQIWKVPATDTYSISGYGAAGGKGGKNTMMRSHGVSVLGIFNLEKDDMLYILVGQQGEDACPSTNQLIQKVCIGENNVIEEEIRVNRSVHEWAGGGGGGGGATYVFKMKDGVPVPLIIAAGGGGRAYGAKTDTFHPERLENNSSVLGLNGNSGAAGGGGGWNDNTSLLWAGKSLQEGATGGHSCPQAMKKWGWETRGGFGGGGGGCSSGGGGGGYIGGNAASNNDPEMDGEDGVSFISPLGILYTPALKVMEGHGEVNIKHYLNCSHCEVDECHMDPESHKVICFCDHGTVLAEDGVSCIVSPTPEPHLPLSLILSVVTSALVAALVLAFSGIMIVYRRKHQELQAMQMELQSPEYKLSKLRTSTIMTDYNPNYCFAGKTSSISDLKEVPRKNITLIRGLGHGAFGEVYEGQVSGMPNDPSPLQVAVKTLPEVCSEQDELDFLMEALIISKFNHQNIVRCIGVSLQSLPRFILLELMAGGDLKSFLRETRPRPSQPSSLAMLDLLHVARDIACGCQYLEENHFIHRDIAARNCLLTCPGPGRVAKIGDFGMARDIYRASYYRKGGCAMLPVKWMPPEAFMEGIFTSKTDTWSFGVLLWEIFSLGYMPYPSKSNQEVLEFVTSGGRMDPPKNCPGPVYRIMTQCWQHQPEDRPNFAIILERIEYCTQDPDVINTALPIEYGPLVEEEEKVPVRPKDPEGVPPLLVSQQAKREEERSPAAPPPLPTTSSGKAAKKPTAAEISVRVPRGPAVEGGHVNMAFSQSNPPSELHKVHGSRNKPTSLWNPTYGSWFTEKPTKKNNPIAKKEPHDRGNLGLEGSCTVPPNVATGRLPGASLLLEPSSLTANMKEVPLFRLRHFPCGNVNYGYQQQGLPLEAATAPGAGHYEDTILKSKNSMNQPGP

[33] = system: c-Met
[34] = target: c-Met (Homo sapiens, UniProt P08581); conditions: read-out: IC50 against c-Met (WT/mutants)
[35] = system: Ron, Flt1
[36] = system: panel of 12 PMTs and DNMT1

Sequence of VEGFR3 (P35916 25-1363): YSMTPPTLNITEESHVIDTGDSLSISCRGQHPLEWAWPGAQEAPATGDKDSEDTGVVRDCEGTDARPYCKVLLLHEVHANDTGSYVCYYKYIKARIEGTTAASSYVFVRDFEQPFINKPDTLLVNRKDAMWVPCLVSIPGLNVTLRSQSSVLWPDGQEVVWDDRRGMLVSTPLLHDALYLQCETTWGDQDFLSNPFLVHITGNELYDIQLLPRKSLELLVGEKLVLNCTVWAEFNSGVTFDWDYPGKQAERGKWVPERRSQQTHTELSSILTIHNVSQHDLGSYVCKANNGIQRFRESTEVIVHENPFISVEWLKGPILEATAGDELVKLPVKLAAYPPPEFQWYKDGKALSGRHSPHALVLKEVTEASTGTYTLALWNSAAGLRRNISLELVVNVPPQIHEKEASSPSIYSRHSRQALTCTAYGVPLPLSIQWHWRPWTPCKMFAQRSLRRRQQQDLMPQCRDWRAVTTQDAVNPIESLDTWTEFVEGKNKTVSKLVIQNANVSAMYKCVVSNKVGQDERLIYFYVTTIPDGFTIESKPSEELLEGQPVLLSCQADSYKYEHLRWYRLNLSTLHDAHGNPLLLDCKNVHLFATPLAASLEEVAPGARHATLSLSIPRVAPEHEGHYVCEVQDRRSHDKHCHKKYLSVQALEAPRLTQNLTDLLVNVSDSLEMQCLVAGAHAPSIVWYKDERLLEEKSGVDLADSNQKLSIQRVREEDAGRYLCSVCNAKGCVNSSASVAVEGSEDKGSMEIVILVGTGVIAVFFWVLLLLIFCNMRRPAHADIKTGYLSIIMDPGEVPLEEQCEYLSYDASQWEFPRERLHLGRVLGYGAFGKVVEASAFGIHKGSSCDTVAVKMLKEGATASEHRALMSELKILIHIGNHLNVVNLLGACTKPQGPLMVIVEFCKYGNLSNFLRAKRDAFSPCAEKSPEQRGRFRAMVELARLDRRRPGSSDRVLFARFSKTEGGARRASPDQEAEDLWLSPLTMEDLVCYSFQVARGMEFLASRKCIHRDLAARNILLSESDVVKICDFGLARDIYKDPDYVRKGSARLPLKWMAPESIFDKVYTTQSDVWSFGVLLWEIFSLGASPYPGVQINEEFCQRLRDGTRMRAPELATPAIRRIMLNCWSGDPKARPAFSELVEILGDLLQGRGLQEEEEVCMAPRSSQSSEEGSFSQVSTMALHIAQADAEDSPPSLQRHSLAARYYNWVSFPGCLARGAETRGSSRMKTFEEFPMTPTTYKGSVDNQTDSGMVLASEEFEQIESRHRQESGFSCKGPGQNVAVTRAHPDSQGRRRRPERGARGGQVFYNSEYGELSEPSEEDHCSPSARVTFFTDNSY

SMILES: CCn1c(N)c(C(=O)NC)c(=O)c2ccc(C#C[C@@](C)(O)COC)nc21 [SAR131675, (R)-2-amino-1-ethyl-7-(3-hydroxy-4-methoxy-3-methylbut-1-ynyl)-N-methyl-4-oxo-1,4-dihydro-1,8-naphthyridine-3-carboxamide]
- pKi [1]: 7.92
- more selective for VEGFR3 than VEGFR1 [1]: about 50 fold
- more selective for VEGFR3 than VEGFR2 [1]: ~10 fold
- pIC50 ([1]; read-out: IC50 VEGFR3 (Flt4)): 7.64
- activity against Akt1, CDKs, PLK1, EGFR, IGF-1R, c-Met, Flt2 etc. [2]: little activity

SMILES: CNC(=O)c1c(F)cccc1Nc1nc(Nc2cc3c(cc2OC)CCN3C(=O)CN(C)C)nc2[nH]ccc12 [GSK1838705A, 2-(2-(1-(2-(dimethylamino)acetyl)-5-methoxyindolin-6-ylamino)-7H-pyrrolo[2,3-d]pyrimidin-4-ylamino)-6-fluoro-N-methylbenzamide]
- activity to other protein kinases [3]: little activity

- pIC50 [4]: 7.60 to 8.30
SMILES: C[C@@H](O)[C@@H](C)Oc1nc(Nc2ccc(S(=N)(=O)C3CC3)cc2)ncc1C(F)(F)F (stereo partly drawn) [BAY 1000394, 2-Butanol, 3-[[2-[[4-[[S(R)]—S-cyclopropylsulfonimidoyl]phenyl]amino]-5-(trifluoromethyl)-4-pyrimidinyl]oxy]-, (2R,3R)—]

- pIC50 [5]: 8.30
SMILES: O=C(O)CC[C@H]1CC[C@@](c2cc(F)ccc2F)(S(=O)(=O)c2ccc(Cl)cc2)CC1 [MK-0752, 3-((1r,4s)-4-(4-chlorophenylsulfonyl)-4-(2,5-difluorophenyl)cyclohexyl)propanoic acid]

- pIC50 [6]: 4.24
SMILES: CC(C)(C)c1cc(C=C(C#N)C#N)cc(Br)c1O [AG-1024, 2-(3-bromo-5-tert-butyl-4-hydroxybenzylidene) malononitrile]

SMILES: COc1cc2nccc(Oc3ccc(NC(=O)NC4CC4)c(Cl)c3)c2cc1C(N)=O [E7080, 1-(4-(6-carbamoyl-7-methoxyquinolin-4-yloxy)-2-chlorophenyl)-3-cyclopropylurea]
- more selective for VEGFR2/3 against FGFR1, PDGFRα/β [7]: ~10 fold

SMILES: Nc1ncnc2c1c(-c1cccc(OCc3ccccc3)c1)cn2C1CC(CN2CCCC2)C1 (stereo in doubt) [NVP-ADW742, 5-(3-(benzyloxy)phenyl)-7-((1r,3r)-3-(pyrrolidin-1-ylmethyl)cyclobutyl)-7H-pyrrolo[2,3-d]pyrimidin-4-amine]
- activity to HER2, PDGFR, VEGFR-2, Bcr-Abl and c-Kit [8]: little activity

SMILES: COc1cc2nccc(Oc3ccc(NC(=O)Nc4cc(C)on4)c(Cl)c3)c2cc1OC [Tivozanib, 1-(2-chloro-4-(6,7-dimethoxyquinolin-4-yloxy)phenyl)-3-(5-methylisoxazol-3-yl)urea]
- activity against FGFR-1, Flt3, c-Met EGFR and IGF-1R [9]: low activity
- activity against FGFR-1, Flt3, c-Met EGFR and IGF-1R [10]: low activity

- selective for ErbB family than other kinases [11]: 3000 fold
SMILES: C=CC(=O)Nc1ccc2ncnc(Nc3ccc(OCc4cccc(F)c4)c(Cl)c3)c2c1.Cc1ccc(S(=O)(=O)O)cc1 [AST-1306, 2-Propenamide, N-[4-[[3-chloro-4-[(3-fluorophenyl)methoxy]phenyl]amino]-6-quinazolinyl]-, 4-methylbenzenesulfonate (1:1)]

- potency to c-Raf-1 (Y340D and Y341D mutations) relative to B-Raf V600E [12]: equally potent
- selectivity for B-RafV600E than wild-type B-Raf [13]: 10 fold
SMILES: CCCS(=O)(=O)Nc1ccc(F)c(C(=O)c2c[nH]c3ncc(Cl)cc23)c1F [PLX4720, N-(3-(5-chloro-1H-pyrrolo[2,3-b]pyridine-3-carbonyl)-2,4-difluorophenyl) propane-1-sulfonamide]

- pIC50 [14]: 7.40
- pIC50 [15]: 7.40
SMILES: S=C(NCc1ccc2c(c1)OCO2)N1CCN(c2ncnc3c2oc2ccccc23)CC1 [Amuvatinib]

SMILES: COc1cc2c(Oc3ccc(NC(=O)C4(C(=O)Nc5ccc(F)cc5)CC4)cc3F)ccnc2cc1OCCCN1CCOCC1 [Foretinib, N-(3-fluoro-4-(6-methoxy-7-(3-morpholinopropoxy)quinolin-4-yloxy)phenyl)-N-(4-fluorophenyl)cyclopropane-1,1-dicarboxamide]
- activity to FGFR1 and EGFR [16]: little activity

SMILES: CCN1CCN(c2ccc(Nc3cc(N(C)C(=O)Nc4c(Cl)c(OC)cc(OC)c4Cl)ncn3)cc2)CC1 [BGJ398, 3-(2,6-dichloro-3,5-dimethoxyphenyl)-1-(6-(4-(4-ethylpiperazin-1-yl)phenylamino)pyrimidin-4-yl)-1-methylurea]
- activity to Abl, Fyn, Kit, Lck, Lyn and Yes [17]: little activity
- activity to Abl, Fyn, Kit, Lck, Lyn and Yes [18]: little activity

- pIC50 [19]: 4.61
SMILES: COc1cc2c(cc1OC)C(=Cc1ccc(O)cc1)C(=O)N2 [RPI-1, 1,3-dihydro-5,6-dimethoxy-3-[(4-hydroxyphenyl)methylene]-H-indol-2-one]

SMILES: CC(=O)c1c(C)c2cnc(Nc3ccc(N4CCNCC4)cn3)nc2n(C2CCCC2)c1=O [PD0332991 Isethionate, Ethanesulfonic acid, 2-hydroxy-, compd. with 6-acetyl-8-cyclopentyl-5-methyl-2-[[5-(1-piperazinyl)-2-pyridinyl]amino]pyrido[2,3-d]pyrimidin-7(8H)-one (1:1)]
- activity against CDK1/2/5, EGFR, FGFR, PDGFR, and InsR [20]: no activity

SMILES: CCCNC(=O)Nc1ccc(Oc2ncnc3cc(OC)c(OC)cc23)cc1Cl [KRN 633, 1-(2-chloro-4-(6,7-dimethoxyquinazolin-4-yloxy)phenyl)-3-propylurea]
- block of the phosphorylation of FGFR-1, EGFR or c-Met in cell [21]: does not block

SMILES: COC(=O)[C@@]1(O)C[C@H]2O[C@]1(C)n1c3ccccc3c3c4c(c5c6ccccc6n2c5c31)C(=O)NC4 [K252a]
- pKi [22]: 7.60
- pKi [23]: 8.74
- pKi [24]: 7.70
- pKi [25]: 7.74

SMILES: C[C@]12O[C@H](C[C@]1(O)CO)n1c3ccccc3c3c4c(c5c6ccccc6n2c5c31)CNC4=O [Lestaurtinib, (9S,10S,12R)-2,3,9,10,11,12-Hexahydro-10-hydroxy-10-(hydroxymethyl)-9-methyl-9,12-epoxy-1H-diindolo[1,2,3-fg:3′,2′,l′-kl]pyrrolo[3,4-i][1, 6]benzodiazocin-1-one]
- pIC50 [26]: 7.52 to 7.70
- pIC50 [27]: 7.00 to 7.52
- effect against myeloproliferative disorders in vivo [28]: effective
- effect against myeloproliferative disorders in vivo [29]: effective
- pIC50 [30]: 7.00 to 7.52
- pIC50 [31]: 7.52 to 7.70

- pIC50 [32]: 7.66
SMILES: COc1cc(N2CCC(N)CC2)ccc1Nc1ncc(Cl)c(-c2c[nH]c3ccccc23)n1 [AZD-3463, 2-Pyrimidinamine, N-[4-(4-amino-1-piperidinyl)-2-methoxyphenyl]-5-chloro-4-(1H-indol-3-yl)-]

SMILES: CN(C[C@@H]1COCCO1)S(=O)(=O)Nc1ccc2ccc3ncc(-c4cnn(C)c4)cc3c(=O)c2c1 [MK-2461, N-((2R)-1,4-Dioxan-2-ylmethyl)-N-methyl-N′-[3-(1-methyl-1H-pyrazol-4-yl)-5-oxo-5H-benzo[4,5]cyclohepta[1,2-b]pyridin-7-yl]sulfamide]
- Selectivity of c-Met targets versus FGFR1, FGFR2, FGFR3, PDGFRβ, KDR, Flt3, Flt4, TrkA, and TrkB [33]: 8- to 30 fold
- pIC50 [34]: 8.60 to 9.40
- Potency to Ron, Flt1 [35]: less potent

SMILES: CC(C)N(CCCNC(=O)Nc1ccc(C(C)(C)C)cc1)C[C@H]1O[C@@H](n2cc(Br)c3c(N)ncnc32)[C@H](O)[C@@H]1O [SGC 0946, 1-[3-[[[(2R,3S,4R,5R)-5-(4-Amino-5-bromo-7H-pyrrolo[2,3-d]pyrimidin-7-yl)-3,4-dihydro-xytetrahydrofuran-2-yl]methyl](isopropyl)amino]pro-pyl]-3-[4-(2,2-dimethylethyl)phenyl]urea]
- activity against a panel of 12 PMTs and DNMT1 [36]: inactive
